Source: patent US20250353852A1, “COMPOUNDS AND COMPOSITIONS THAT INHIBIT PIKFYVE” (Kineta, Inc., priority 2021, published 2025)
pIC50: −log10 of the molar value.

System: PIKFYVE TDP-43 yeast strain
Experiment: Propidium iodide viability assay, PIKFYVE TDP-43 yeast strain
Type: cell-based
Details: Saccharomyces cerevisiae; PIKFYVE TDP-43 yeast strain, values plotted in FIG. 7
Description: Generation of TDP-43 yeast model expressing human PIKfyve. Human PIKFYVE (“entry clone”) was cloned into […] (“destination vector”) according to standard Gateway cloning protocols (Invitrogen, Life Technologies). The resulting pAG416GPD-PIKFYVE plasmids were amplified in E. coli and plasmid identity confirmed by restriction digest and Sanger sequencing. […]+) (FIG. 2). Transformed yeast were plated on solid agar plates with complete synthetic media lacking uracil (CSM-ura) and containing 2% glucose. Individual colonies harboring the control or PIKFYVE TDP-43 plasmids were recovered. A plasmid containing wild-type TDP-43 under the transcriptional control of the GAL1 promoter and containing the […] as a selectable marker was transformed into the […]-PIKFYVE yeast strain (FIG. 1). Transformed yeast were plated on CSM-ura containing 2% glucose and 200 μg/mL G418 after overnight recovery in media lacking antibiotic. Multiple independent isolates were further evaluated for cytotoxicity and TDP-43 expression levels. Viability Assay. A control yeast strain with the wild-type yeast FAB1 gene and TDP-43 (“FAB1 TDP-43”, carries empty pAG416 plasmid), and the “PIKFYVE TDP-43” yeast strain, were assessed for toxicity using a propidium iodide viability assay. Both yeast strains were transferred from solid CSM-ura/2% glucose agar plates into 3 mL of liquid CSM-ura/2% glucose media for 6-8 hours at 30° C. with aeration. Yeast cultures were then diluted to an optical density at 600 nm wavelength (OD600) of 0.005 in 3 mL of CSM-ura/2% raffinose and grown overnight at 30° C. with aeration to an OD600 of 0.3-0.8. Log-phase overnight cultures were diluted to OD600 of 0.005 in CSM-ura containing either 2% raffinose or galactose and 150 μL dispensed into each well of a flat bottom 96-well plates. Compounds formulated in 100% dimethyl sulfoxide (DMSO) were serially diluted in DMSO and 1.5 μL diluted compound transferred to the 96-well plates using a multichannel pipet. Wells containing DMSO alone were also evaluated as controls for compound effects. Tested concentrations ranged from 15 μM to 0.11 μM. Cultures were immediately mixed to ensure compound distribution and covered plates incubated at 30° C. for 24 hours in a stationary, humified incubator. Upon the completion of incubation, cultures were assayed for viability using propidium iodide (PI) to stain for dead/dying cells. A working solution of PI was made where, for each plate, 1 μL of 10 mM PI was added to 10 mL of CSM-ura (raffinose or galactose). […] The overnight 96-well assay plate was then mixed with a multichannel pipet and 50 μL transferred to the PI-containing plate. This plate was then incubated for 30 minutes at 30° C. in the dark. A benchtop flow cytometer (Miltenyi MACSquant) was then used to assess red fluorescence (B2 channel), forward scatter, and side scatter (with following settings: gentle mix, high flow rate, fast measurement, 10,000 events). Intensity histograms were then gated for “PI-positive” or “PI-negative” using the raffinose and galactose cultures treated with DMSO as controls. The DMSO controls for raffinose or galactose-containing cultures were used to determine the window of increased cell death and this difference set to 100. All compounds were similarly gated and then compared to this maximal window to establish the percent reduction in PI-positive cells.

| Structure (SMILES) | pIC50 |
| --- | --- |
| Cc1cccc(/C=N/Nc2nc(N3CCOCC3)c3nc(-c4ccncc4)n(C)c3n2)c1 [drawing 343] | 5.33 |
| c1ccc(-c2cccc(-c3cc(N4CCOCC4)n4nc(-c5ccncc5)cc4n3)n2)cc1 | 6.64 |
| Oc1cc(-c2ccccc2)nn1-c1cc(N2CCOCC2)n2nc(-c3ccncc3)nc2n1 | 6.16 |
| c1ccc(N2CCc3c(OCc4cccnc4)nc(N4CCOCC4)nc32)cc1 | 5.57 |
| Cc1cccc(/C=N/Nc2nc(N3CCOCC3)c3ncccc3n2)c1 | 5.09 |
| Oc1cc(C2CCOCC2)nn1-c1cc(N2CCOCC2)n2nc(-c3ccncc3)cc2n1 [drawing 345] | 5.04 |
| Cc1cccc(/C=N/Nc2cc(N3CCOCC3)nc(OCCc3ccc(CN)cc3)n2)c1 | 5.95 |
| Fc1cccc(-c2ccnn2-c2nc(N3CCOCC3)c3ncccc3n2)c1 | 5.24 |
| c1ccc(-c2ccnc(-c3cc(N4CCOCC4)nc(OCc4ccncc4)n3)n2)cc1 | 5.84 |

System: U2OS cells
Experiment: EEA1 assay (endosomal vesicle enlargement as surrogate readout of PIKFyve inhibition)
Type: cell-based
Details: 3 hours of treatment, class symbols
Description: EEA1 Assay. Genetic or pharmacological disruption of PIKfyve activity results in enlargement of endosomal vesicles. This enlargement was utilized as a surrogate readout of PIKFyve inhibition for routine triage of PIKfyve inhibitors. U2OS cells grown in 96-well assay plates were treated with compound diluted in DMEM media containing 10% fetal bovine serum. After 3 hours of treatment, cells were fixed with paraformaldehyde, permeabilized with 0.2% Triton-X in phosphate buffered saline and stained against EEA1. During the secondary antibody staining, cells were also stained with CellMask DeepRed and Hoechst to detect cytoplasms and nuclei respectively. Endosomal structures were visualized using a high content imager at 40× magnification. Images were analyzed using a linear classifier algorithm integrating EEA1 spot size, intensity and texture trained on images of cells treated with the potent reference compound APY0201. Compound activity was calculated by subtracting the DMSO signal and calculating percentage activity relative to maximal APY0201 activity. IC50s were then calculated from concentration vs. % inhibition data by logistic regression.

| Structure (SMILES) | pIC50 |
| --- | --- |
| COc1nn(-c2cc(N3CCOCC3)n3nccc3n2)cc1-c1ccccc1 [Compound 77, 4-(5-(3-methoxy-4-phenyl-1H-pyrazol-1-yl)pyrazolo[1,5-a]pyrimidin-7-yl)morpholine] | 5.00 to 6.00 |

Same assay, conditions: Homo sapiens, 3 hours of treatment, class symbols

| Structure (SMILES) | pIC50 |
| --- | --- |
| COc1nn(-c2cc(N3CCOCC3)n3nc(C(O)CO)cc3n2)cc1-c1ccccc1 (stereo not drawn) [Compound 145, 1-(5-(3-methoxy-4-phenyl-1H-pyrazol-1-yl)-7-morpholinopyrazolo[1,5-a]pyrimidin-2-yl)ethane-1,2-diol] | 5.00 to 6.00 |
| Cc1cccc(-c2ccn(-c3cc(N4CCOCC4)n4nc(C(O)CO)cc4n3)n2)c1 (stereo not drawn) [Compound 150, 1-(7-morpholino-5-(3-(m-tolyl)-1H-pyrazol-1-yl)pyrazolo[1,5-a]pyrimidin-2-yl)ethane-1,2-diol] | 5.00 to 6.00 |
| Cc1cccc(-c2ccn(-c3cc(N4CCOCC4)n4nc(-c5cccnc5)cc4n3)n2)c1 [Compound 79] | 6.00 to 7.00 |
| Cc1cccc(-c2ccn(-c3cc(N4CCOCC4)n4nc(CCC(=O)N(C)C)cc4n3)n2)c1 [Compound 149, N,N-dimethyl-3-(7-morpholino-5-(3-(m-tolyl)-1H-pyrazol-1-yl)pyrazolo[1,5-a]pyrimidin-2-yl)propanamide] | 6.00 to 7.00 |
| Cc1cccc(-c2ccn(-c3cc(N4CCOCC4)n4nc(C5CCN(C)C(=O)C5)cc4n3)n2)c1 (stereo not drawn) [Compound 151, 1-methyl-4-(7-morpholino-5-(3-(m-tolyl)-1H-pyrazol-1-yl)pyrazolo[1,5-a]pyrimidin-2-yl)piperidin-2-one] | 5.00 to 6.00 |
| Cn1ccc(-c2cccc(-c3cc(N4CCOCC4)n4nc(N5CCC(O)CC5)cc4n3)c2)n1 [Compound 152, 1-(5-(3-(1-methyl-1H-pyrazol-3-yl)phenyl)-7-morpholinopyrazolo[1,5-a]pyrimidin-2-yl)piperidin-4-ol] | 5.00 to 6.00 |
| Cc1cccc(-c2ccn(-c3cc(N4CCOCC4)n4nccc4n3)n2)c1 [Compound 78, 4-(5-(3-(m-tolyl)-1H-pyrazol-1-yl)pyrazolo[1,5-a]pyrimidin-7-yl)morpholine] | 5.00 to 6.00 |

Target: full-length human PIKFYVE (Homo sapiens (Human), UniProt Q9Y2I7, L932S/Q1183K/Q995L/S1033A/S696N/T998S)
Sequence (Q9Y2I7 whole entry S696N/L932S/Q995L/T998S/S1033A/Q1183K): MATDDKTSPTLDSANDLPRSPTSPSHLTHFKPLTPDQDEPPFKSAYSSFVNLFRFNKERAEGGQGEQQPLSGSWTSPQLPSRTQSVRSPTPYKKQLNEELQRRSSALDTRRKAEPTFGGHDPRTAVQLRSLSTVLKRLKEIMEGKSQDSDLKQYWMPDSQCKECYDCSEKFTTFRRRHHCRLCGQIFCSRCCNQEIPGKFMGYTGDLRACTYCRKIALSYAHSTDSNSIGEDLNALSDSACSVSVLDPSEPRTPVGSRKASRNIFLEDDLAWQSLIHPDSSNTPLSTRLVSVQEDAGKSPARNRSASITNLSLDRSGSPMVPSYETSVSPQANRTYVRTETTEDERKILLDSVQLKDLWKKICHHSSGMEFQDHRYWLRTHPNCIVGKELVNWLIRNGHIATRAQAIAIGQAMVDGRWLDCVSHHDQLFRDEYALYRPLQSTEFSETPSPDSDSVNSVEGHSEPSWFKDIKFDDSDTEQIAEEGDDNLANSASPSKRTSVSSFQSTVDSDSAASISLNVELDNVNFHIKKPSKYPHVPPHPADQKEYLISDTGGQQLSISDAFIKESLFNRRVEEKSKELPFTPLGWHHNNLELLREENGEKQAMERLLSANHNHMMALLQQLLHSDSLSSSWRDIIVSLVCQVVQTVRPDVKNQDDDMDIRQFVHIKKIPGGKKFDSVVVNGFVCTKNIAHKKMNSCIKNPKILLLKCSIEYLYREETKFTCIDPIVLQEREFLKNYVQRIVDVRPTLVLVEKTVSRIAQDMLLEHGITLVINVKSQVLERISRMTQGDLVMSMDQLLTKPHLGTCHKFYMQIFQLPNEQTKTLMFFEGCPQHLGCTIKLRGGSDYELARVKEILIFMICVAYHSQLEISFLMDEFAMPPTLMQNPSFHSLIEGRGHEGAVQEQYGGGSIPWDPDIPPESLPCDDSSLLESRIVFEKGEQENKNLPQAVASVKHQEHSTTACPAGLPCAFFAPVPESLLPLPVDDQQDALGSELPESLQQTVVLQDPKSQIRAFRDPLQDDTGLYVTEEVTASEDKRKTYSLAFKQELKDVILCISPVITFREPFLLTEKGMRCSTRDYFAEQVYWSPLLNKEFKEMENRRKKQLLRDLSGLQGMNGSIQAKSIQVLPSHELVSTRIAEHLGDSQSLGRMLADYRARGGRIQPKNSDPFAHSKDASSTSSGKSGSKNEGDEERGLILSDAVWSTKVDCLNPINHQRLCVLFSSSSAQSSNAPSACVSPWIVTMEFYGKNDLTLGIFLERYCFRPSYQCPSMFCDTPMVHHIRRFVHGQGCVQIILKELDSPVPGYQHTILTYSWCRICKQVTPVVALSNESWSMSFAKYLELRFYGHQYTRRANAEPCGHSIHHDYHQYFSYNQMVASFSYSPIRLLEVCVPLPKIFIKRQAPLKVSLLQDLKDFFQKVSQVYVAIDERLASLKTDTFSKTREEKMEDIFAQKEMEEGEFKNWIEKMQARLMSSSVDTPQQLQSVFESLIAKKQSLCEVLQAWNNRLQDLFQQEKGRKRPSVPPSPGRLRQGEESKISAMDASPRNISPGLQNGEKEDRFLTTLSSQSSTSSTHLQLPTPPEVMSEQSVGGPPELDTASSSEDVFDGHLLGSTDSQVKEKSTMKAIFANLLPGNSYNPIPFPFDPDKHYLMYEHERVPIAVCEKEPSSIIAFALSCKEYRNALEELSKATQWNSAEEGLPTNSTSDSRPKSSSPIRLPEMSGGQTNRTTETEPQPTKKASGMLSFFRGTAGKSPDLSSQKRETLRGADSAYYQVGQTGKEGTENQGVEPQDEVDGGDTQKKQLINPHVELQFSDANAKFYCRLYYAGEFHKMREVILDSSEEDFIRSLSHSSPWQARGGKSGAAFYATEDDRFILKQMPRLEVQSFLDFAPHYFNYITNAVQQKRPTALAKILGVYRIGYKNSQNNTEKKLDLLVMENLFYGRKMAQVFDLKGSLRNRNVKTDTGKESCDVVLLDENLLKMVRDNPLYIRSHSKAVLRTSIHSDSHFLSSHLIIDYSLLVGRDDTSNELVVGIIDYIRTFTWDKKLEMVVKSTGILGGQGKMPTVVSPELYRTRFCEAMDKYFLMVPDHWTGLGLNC
Experiment: PIKfyve biochemical assay (ADP-Glo Kinase assay, Carna Biosciences)
Details: class symbols
Outline: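 N-terminal GST-fused full-length PIKFYVE from baculovirus, incubated with compound, substrate and ATP in 50 mM MOPS, 1 mM DTT, pH7.2 for 1 hour at room temperature. ADP formed detected by ADP-Glo luminescence; IC50 from four-parameter logistic fit of % inhibition.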

| Structure (SMILES) | pIC50 |
| --- | --- |
| COc1nn(-c2cc(N3CCOCC3)n3nccc3n2)cc1-c1ccccc1 [Compound 77, 4-(5-(3-methoxy-4-phenyl-1H-pyrazol-1-yl)pyrazolo[1,5-a]pyrimidin-7-yl)morpholine] | < 5.00 |
| Cc1cccc(-c2ccn(-c3cc(N4CCOCC4)n4nc(-c5cccnc5)cc4n3)n2)c1 [Compound 79] | > 8.00 |
| CCOC(=O)Cc1cc(N2CCOCC2)n2nc(-c3ccncc3)cc2n1 [Compound 133, ethyl 2-(7-morpholino-2-(pyridin-4-yl)pyrazolo[1,5-a]pyrimidin-5-yl)acetate] | 5.00 to 6.00 |
| Cc1cccc(C(=O)COc2cc(N3CCOCC3)n3nc(-c4ccncc4)cc3n2)c1 [Compound 125, 2-((7-morpholino-2-(pyridin-4-yl)pyrazolo[1,5-a]pyrimidin-5-yl)oxy)-1-(m-tolyl)ethan-1-one] | 5.00 to 6.00 |
| O=C1C(c2ccccc2)CCCN1c1cc(N2CCOCC2)n2nc(-c3ccncc3)cc2n1 (stereo not drawn) [Compound 24, 1-(7-morpholino-2-(pyridin-4-yl)pyrazolo[1,5-a]pyrimidin-5-yl)-3-phenylpiperidin-2-one] | 5.00 to 6.00 |
| c1ccc(-c2ccn(-c3cc(N4CCOCC4)n4nc(-c5ccncc5)cc4n3)n2)nc1 [Compound 70, 4-(5-(3-(pyridin-2-yl)-1H-pyrazol-1-yl)-2-(pyridin-4-yl)pyrazolo[1,5-a]pyrimidin-7-yl)morpholine] | 6.00 to 7.00 |
| c1ccc(-c2ccn(-c3cc(N4CCOCC4)n4nc(C5CCCO5)cc4n3)n2)cc1 (stereo not drawn) [Compound 90, 4-(5-(3-phenyl-1H-pyrazol-1-yl)-2-(tetrahydrofuran-2-yl)pyrazolo[1,5-a]pyrimidin-7-yl)morpholine] | 7.00 to 8.00 |
| CN1CCC(c2ccn(-c3cc(N4CCOCC4)n4nc(-c5ccncc5)cc4n3)n2)CC1 [Compound 63, 4-(5-(3-(1-methylpiperidin-4-yl)-1H-pyrazol-1-yl)-2-(pyridin-4-yl)pyrazolo[1,5-a]pyrimidin-7-yl)morpholine] | 6.00 to 7.00 |
| O=C1COC(c2ccccc2)CN1c1cc(N2CCOCC2)n2nc(-c3ccncc3)cc2n1 (stereo not drawn) [Compound 135, 4-(7-morpholino-2-(pyridin-4-yl)pyrazolo[1,5-a]pyrimidin-5-yl)-6-phenylmorpholin-3-one] | 5.00 to 6.00 |
| c1ccc(N2CC(c3cc(N4CCOCC4)n4nc(-c5ccncc5)cc4n3)C2)cc1 [Compound 121, 4-(5-(1-phenylazetidin-3-yl)-2-(pyridin-4-yl)pyrazolo[1,5-a]pyrimidin-7-yl)morpholine] | < 5.00 |
| c1cc(-c2cc3nc(-n4ccc(C5CCCNC5)n4)cc(N4CCOCC4)n3n2)ccn1 (single isomer, unassigned) [Compound 76, 4-(5-(3-(piperidin-3-yl)-1H-pyrazol-1-yl)-2-(pyridin-4-yl)pyrazolo[1,5-a]pyrimidin-7-yl)morpholine] | 6.00 to 7.00 |
| CC(C)(C)OC(=O)N1CCN(c2cc(N3CCOCC3)n3nc(-c4ccncc4)cc3n2)C(Cc2ccccc2)C1 (stereo not drawn) [Compound 116, tert-butyl 3-benzyl-4-(7-morpholino-2-(pyridin-4-yl)pyrazolo[1,5-a]pyrimidin-5-yl)piperazine-1-carboxylate] | 5.00 to 6.00 |
| Oc1cc(-c2cncnc2)nn1-c1cc(N2CCOCC2)n2nc(-c3ccncc3)cc2n1 [Compound 44, 1-(7-morpholino-2-(pyridin-4-yl)pyrazolo[1,5-a]pyrimidin-5-yl)-3-(pyrimidin-5-yl)-1H-pyrazol-5-ol] | 6.00 to 7.00 |
| c1ccc(C2CN(c3cc(N4CCOCC4)n4nc(-c5ccncc5)cc4n3)C2)cc1 [Compound 32, 4-(5-(3-phenylazetidin-1-yl)-2-(pyridin-4-yl)pyrazolo[1,5-a]pyrimidin-7-yl)morpholine] | 5.00 to 6.00 |
| c1cc(-c2cc3nc(-n4cc5c(n4)CCCC5)cc(N4CCOCC4)n3n2)ccn1 [Compound 85, 4-(2-(pyridin-4-yl)-5-(4,5,6,7-tetrahydro-2H-indazol-2-yl)pyrazolo[1,5-a]pyrimidin-7-yl)morpholine] | 6.00 to 7.00 |

Same assay, conditions: numeric values

| Structure (SMILES) | pIC50 |
| --- | --- |
| Fc1cccc(-c2ccnn2-c2cc(N3CCOCC3)n3nc(-c4ccncc4)cc3n2)c1 [Compound 147, 4-(5-(5-(3-fluorophenyl)-1H-pyrazol-1-yl)-2-(pyridin-4-yl)pyrazolo[1,5-a]pyrimidin-7-yl)morpholine] | 5.80 |
